Data on 29 compounds can be found in ChEMBL document CHEMBL1158475, “Identification of novel falcipain-2 inhibitors as potential antimalarial agents through structure-based virtual screening” (J Med Chem, 2009).

The source made the active and inactive calls. The rule behind the calls is not given here. Some results are limits rather than exact numbers.

Assay [1] can be described thus: Inhibition of Plasmodium falciparum recombinant falcipain-2 by microtiter plate spectrofluorimetry.
In assay [2] the test system is Plasmodium falciparum. The assay is described as follows: Inhibition of Plasmodium falciparum recombinant falcipain-2 at 10 uM by microtiter plate spectrofluorimetry.
The test system of assay [3] is Plasmodium falciparum. Put plainly: Binding affinity to Plasmodium falciparum recombinant falcipain-2 by isothermal titration calorimetry.
Assay [4] relates to Plasmodium falciparum. The assay is described as follows: Inhibition of Plasmodium falciparum recombinant falcipain-2 at 10 uM after dialysis in refolding buffer for 8 hrs by SDS-PAGE.
For assay [5], the system named is Plasmodium falciparum. Put plainly: Induction of Plasmodium falciparum recombinant falcipain-2 aggregation by pseudonative gel analysis.
For assay [6], the system named is Plasmodium falciparum. Put plainly: Induction of Plasmodium falciparum recombinant falcipain-2 aggregation by FPLC gel filtration chromatography. For orientation: In gel filtration, larger molecules generally elute earlier.

As to `COc1cccc(/C=N/NC(=O)c2ccn(Cc3ccc(Cl)cc3Cl)n2)c1O`, the half-maximal inhibitory concentration (IC50) (usually the concentration that gives 50% inhibition) in assay [1] was above 50 µM. Further, in the assay with Plasmodium falciparum [2], the inhibition (usually the change of the read-out against control, counted positive when it falls) stood at 21.8%.

Take `O=C(NC(Cc1c[nH]c2ccccc12)C(=O)NCc1ccccc1)Oc1ccccc1` (centres undefined): the IC50 in assay [1] is 29.7 µM. In the assay on Plasmodium falciparum [2], the inhibition was determined as 29.4%.

Turning to `Nc1nnc(SCC(=O)Nc2ccc3nc(SCc4cccc5ccccc45)sc3c2)s1`, the IC50 in assay [1] was 15 µM. Further, the inhibition with Plasmodium falciparum [2] was 44%.

In the case of `CC(=O)c1ccc(NC(=O)CSc2nnc(COc3ccc4ccccc4c3)n2-c2ccccc2)cc1`, the IC50 in assay [1] is above 50 µM. Moreover, the inhibition with Plasmodium falciparum [2] is 23.4%.

Take `Cc1c(Cl)cccc1-c1ccc(/C=N\Nc2nncn2/N=C/c2ccc(-c3cccc(Cl)c3C)o2)o1`: in assay [1], the IC50 came to 6.4 µM. In addition, in the assay on Plasmodium falciparum [2], the inhibition amounted to 56.5%.

For the compound `O=C(COc1cccc(Cl)c1)Nc1nc(-c2ccc(S(=O)(=O)N3CCOCC3)cc2)cs1`, the half-maximal inhibitory concentration (IC50) in assay [1] was determined as 20 µM. In addition, the inhibition in the assay with Plasmodium falciparum [2] was 25.2%.

On to `O=C(CSc1nnc(SCC(=O)Nc2ccc(Cl)cc2)s1)Nc1ccc(Cl)cc1`, for which, in assay [1], the IC50 was determined as 20 µM. Further, the inhibition in the assay with Plasmodium falciparum [2] stood at 28.2%.

As for `Cc1cc(C)nc(NS(=O)(=O)c2ccc(NC(=S)NC(=O)c3cccnc3)cc2)n1`, the IC50 in assay [1] was above 50 µM. Also, the inhibition in the assay with Plasmodium falciparum [2] stood at 20.2%.

With `COc1cc(NS(=O)(=O)c2ccc(NC(=O)c3cc(-c4cccc(C)c4)nc4ccccc34)cc2)ncn1`, the IC50 in assay [1] was determined as 20 µM. The inhibition in the assay on Plasmodium falciparum [2] was 26.9%.

`CCc1ccc(OCc2nnc(SCC(=O)Nc3ccc4ccccc4c3)o2)cc1`: the IC50 in assay [1] was above 50 µM. Further, the inhibition with Plasmodium falciparum [2] amounted to 21.9%.

As for `CC(Sc1nc(-c2ccccc2O)n[nH]1)C(=O)Nc1cccc(Cl)c1` (centres undefined), the IC50 in assay [1] came to 5.8 µM. For the same compound, the inhibition with Plasmodium falciparum [2] was 71.4%.

Regarding `O=C(CCc1ccc(S(=O)(=O)NCCc2ccccc2)cc1)Nc1ccc2c(c1)OCCO2`, the IC50 in assay [1] was 54.2 µM. In addition, the inhibition in the assay on Plasmodium falciparum [2] amounted to 20.3%.

For the compound `COc1cccc(OCC(=O)NC(=S)Nc2cccc(-c3nc4ncccc4o3)c2C)c1`, the IC50 in assay [1] was above 50 µM. In addition, the inhibition with Plasmodium falciparum [2] turned out to be 20.2%.

With `CCOC(=O)c1c(-c2ccc(-c3ccccc3)cc2)csc1NC(=O)CSc1nnc2sc3ccccc3n12`, the IC50 in assay [1] turned out to be 15 µM. Also, in the assay on Plasmodium falciparum [2], the inhibition came out at 36.6%.

Turning to `Cc1ccc(NC(=O)CN2C(=O)S/C(=C/c3ccc(-c4ccc(Cl)c(C(=O)O)c4)o3)C2=O)cc1`, the IC50 in assay [1] amounted to 20 µM. For the same compound, the inhibition with Plasmodium falciparum [2] worked out at 29%.

As for `CC(=O)c1ccc(-c2ccc(/C=N/Nc3nc(N4CCCCC4)nc(N4CCCCC4)n3)o2)cc1`, in assay [1], the IC50 turned out to be 20 µM. In the assay with Plasmodium falciparum [2], the inhibition was determined as 27.9%.

`COc1ccc(C(=O)NNC(=O)CSc2nnc(COc3ccc4ccccc4c3)n2C)cc1`: the IC50 in assay [1] was above 50 µM. Also, the inhibition in the assay on Plasmodium falciparum [2] stood at 20.8%.

Regarding `Cc1cccc(OCC(=O)Nc2nc(-c3ccc(S(=O)(=O)N4CCOCC4)cc3)cs2)c1`, the IC50 in assay [1] is above 50 µM. Besides, the inhibition in the assay with Plasmodium falciparum [2] is 21.3%.

In the case of `CCOC(=O)c1ccc(NC(=O)CSc2nnc(-c3ccccc3Br)n2CC)cc1`, the IC50 in assay [1] is 17.1 µM. The inhibition in the assay with Plasmodium falciparum [2] is 38.3%.

For `CC(=O)c1ccc(NC(=O)CSc2nnc(COc3cccc4cccnc34)n2-c2ccccc2)cc1`, in assay [1], the IC50 was above 50 µM. Further, in the assay with Plasmodium falciparum [2], the inhibition was found to be 21.9%.

For the compound `CCn1c(CNC(=O)Cc2ccc(OC)cc2)nnc1SCC(=O)Nc1ccc(Cl)c(Cl)c1`, the half-maximal inhibitory concentration (IC50) in assay [1] came to 20 µM. The inhibition with Plasmodium falciparum [2] came out at 25.9%.

As for `O=C(Cn1nnc(-c2ccccc2)n1)N/N=C/c1ccccc1OCc1ccc(Cl)cc1Cl`, the IC50 in assay [1] came out at 20 µM. Further, the inhibition in the assay on Plasmodium falciparum [2] is 28.9%.

In the case of `CC(C)C[C@H](NC(=O)[C@H]1O[C@@H]1C(=O)O)C(=O)NCCCCN=C(N)N` [E-64], the IC50 in assay [1] is 0.017 µM. Besides, in the assay with Plasmodium falciparum [2], the inhibition is 97.4%. Besides, the outcome in the assay with Plasmodium falciparum [3] and in the assay with Plasmodium falciparum [4] was Active.

Take `O=C(Cc1nnc(NC(=O)c2ccc(Br)cc2)s1)NNC(=O)c1ccc(Br)cc1`: the half-inhibitory concentration (IC50) in assay [1] was above 50 µM. The inhibition with Plasmodium falciparum [2] was determined as 20.2%.

As for `O=C(COc1ccc2ccccc2c1)NCC(=O)N/N=C/c1ccc(-c2ccc(Cl)c(Cl)c2)o1`, in assay [1], the IC50 is 13.2 µM. In the assay with Plasmodium falciparum [2], the inhibition came out at 48.5%.

For the compound `C=CCn1c(SCC(=O)Nc2sc3c(c2C(N)=O)CCC3)nc2scc(-c3ccccc3)c2c1=O`, the IC50 in assay [1] is 2.4 µM. The inhibition in the assay on Plasmodium falciparum [2] worked out at 53.1%. In addition, the result in the assay with Plasmodium falciparum [3], in the assay with Plasmodium falciparum [5], in the assay with Plasmodium falciparum [6] and in the assay on Plasmodium falciparum [4] was inactive.

In the case of `O=C(COC(=O)c1ccc(S(=O)(=O)c2cccc(S(=O)(=O)N3CCOCC3)c2)cc1)c1ccccc1`, the IC50 in assay [1] stood at 20 µM. Besides, in the assay with Plasmodium falciparum [2], the inhibition was 36.9%.

With `CC(NC(=O)COc1ccc2ccccc2c1)C(=O)N/N=C/c1cccc(Cl)c1Cl` (centres undefined), in assay [1], the concentration for half-maximal inhibition (IC50) was above 50 µM. In addition, in the assay on Plasmodium falciparum [2], the inhibition was 25.1%.

For `O=C(CN1C(=O)S/C(=C/c2ccc(-c3ccc(Cl)c(C(=O)O)c3)o2)C1=O)Nc1ccc2c(c1)OCO2`, the IC50 in assay [1] was found to be 10.9 µM. Moreover, in the assay with Plasmodium falciparum [2], the inhibition is 41.4%.
